Data taken from patent US6989138B2, “Stabilization of radiopharmaceutical compositions using hydrophilic thioethers and hydrophilic 6-hydroxy chromans” (Diatide, Inc., priority 2000, dated 2006).

Test: Radiochemical purity (RCP) of 99mTc-depreotide kits with gentisic acid, reversed phase HPLC
Assay type: physicochemical
Settings: when included in formulated kits
Procedure: Lyophilized kit vials were prepared containing depreotide, GA, and other components as described in Table 1. Formulations were adjusted to pH 7.4 or 8.5 (as noted) prior to lyophilization.

O=C(O)c1cc(O)ccc1O [gentisic acid, Gentisic acid]
effect on radiolabelling yield and stability of 99mTc-depreotide: decreases the radiolabelling yield and the stability
